Data from patent US12649727B2, “EFGR inhibitor, preparation method therefor and application thereof” (Abbisko Therapeutics Co., Ltd, priority 2020, dated 2026).

What was measured:
Format in all cases: cell-based
[1] = molecular target: Ba/F3 EGFR-D770-N771ins_SVD (Homo sapiens, UniProt P00533, DUP768-770, cells depend on it); assay: Proliferation experiment of Ba/F3 cell line, EGFR-D770-N771ins_SVD (CellTiter-Glo); settings: cultured for 72 hrs with compound, CTG analysis, read-out: Ba/F3 EGFR-D770-N771ins_SVD IC50
Sequence of Ba/F3 EGFR-D770-N771ins_SVD (P00533 with tags, fused parts or gaps DUP768-770): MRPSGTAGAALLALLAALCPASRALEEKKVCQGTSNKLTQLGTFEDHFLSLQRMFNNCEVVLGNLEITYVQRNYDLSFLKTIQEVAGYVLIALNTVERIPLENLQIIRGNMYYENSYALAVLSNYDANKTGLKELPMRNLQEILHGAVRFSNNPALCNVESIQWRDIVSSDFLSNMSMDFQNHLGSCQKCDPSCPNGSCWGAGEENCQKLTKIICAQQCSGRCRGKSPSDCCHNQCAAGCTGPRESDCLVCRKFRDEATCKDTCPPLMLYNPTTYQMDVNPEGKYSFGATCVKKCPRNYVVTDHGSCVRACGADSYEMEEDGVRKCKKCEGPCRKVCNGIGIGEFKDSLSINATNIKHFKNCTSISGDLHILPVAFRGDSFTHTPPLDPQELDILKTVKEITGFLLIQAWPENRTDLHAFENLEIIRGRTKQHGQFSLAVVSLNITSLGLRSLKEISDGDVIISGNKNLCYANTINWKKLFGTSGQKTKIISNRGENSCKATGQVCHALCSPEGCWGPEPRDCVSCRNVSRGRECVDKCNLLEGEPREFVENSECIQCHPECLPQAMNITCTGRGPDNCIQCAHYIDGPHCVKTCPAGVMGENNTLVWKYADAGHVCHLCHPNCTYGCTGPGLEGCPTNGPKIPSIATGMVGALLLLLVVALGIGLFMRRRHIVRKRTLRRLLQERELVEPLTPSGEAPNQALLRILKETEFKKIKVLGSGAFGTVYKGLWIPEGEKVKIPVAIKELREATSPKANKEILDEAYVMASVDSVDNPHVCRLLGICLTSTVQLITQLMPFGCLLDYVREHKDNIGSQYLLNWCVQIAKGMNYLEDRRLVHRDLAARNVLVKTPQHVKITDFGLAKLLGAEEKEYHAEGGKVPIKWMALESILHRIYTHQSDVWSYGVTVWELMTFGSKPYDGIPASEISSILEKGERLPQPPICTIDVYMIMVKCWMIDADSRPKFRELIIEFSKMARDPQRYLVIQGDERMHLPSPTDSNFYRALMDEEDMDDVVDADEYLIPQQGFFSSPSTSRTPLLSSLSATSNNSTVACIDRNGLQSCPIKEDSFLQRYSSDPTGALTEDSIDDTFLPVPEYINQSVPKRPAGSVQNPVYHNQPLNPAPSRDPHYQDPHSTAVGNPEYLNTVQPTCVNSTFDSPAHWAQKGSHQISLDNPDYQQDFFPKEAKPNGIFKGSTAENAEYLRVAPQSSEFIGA
Description: (§1) Proliferation Experiment of Ba/F3 Cell Line
(§2) (I) Reagents and Materials
(§3) • Fetal bovine serum FBS (GBICO, Cat #10099-141); • CellTiter-Glo® luminescent cell viability assay kit (Promega, Cat #G7572); • Black transparent flat-bottom 96 well plate (Corning®, Cat #3603). (II) Instruments • SpectraMax multi-label microplate reader MD, 2104-0010A; • Carbon dioxide incubator, Thermo Scientific 3100 series; • Biological safety cabinet, Thermo Scientific, 1300 series model A2; • Inverted microscope, Olympus, CKX41SF; • Siemens refrigerator KK25E76TI. (III) Cell Lines and Culture Conditions
(§4) (IV) Experimental Procedures 1. Cell Culture and Inoculation: • (1) Cells in the logarithmic growth phase were harvested and counted using a […]. Cell viability was detected by Trypan Blue Dye Exclusion Method to ensure cell viability above 90%. • (2) The cell concentration was adjusted to reach a desired final density; 90 μL of cell suspension was added to the 96-well plate. • (3) The cells were incubated overnight in the 96-well plate at 37° C., 5% CO2 and at 95% humidity.
(§5) 2. T0 Reference Data: • (1) 10 μL PBS was added to each well of the TO plate containing the cells. • (2) The CTG reagent was thawed and the cell plate was equilibrated to room temperature for 30 min. • (3) An equal volume of CTG solution was added to each well. • (4) The cells were lysed by shaking on an orbital shaker for 5 min. • (5) The cell plate was left at room temperature for 20 min to stabilize the luminescence signal. • (6) The fluorescence signal values of TO were read. 3. Dilution and Addition of Compounds • (1) According to the compound information table, a corresponding volume of DMSO was added to the corresponding compound powder to prepare a 10 mM stock solution. • (2) A 1000-fold, 3.16-fold-diluted compound solution was prepared. • (3) The 1000× diluted compound solution was diluted 100-fold with PBS to prepare a 10-fold compound solution with a maximum concentration of […], including 9 concentrations, with 3.16-fold dilution, and 10 μL of the medicament solution was added to each well of the 96-well plate to seed the cells. Triplicate wells were set for each compound concentration, with a final concentration of DMSO being 0.1%. • (4) The cells were placed in the 96-well plate filled with the medicament at 37° C., 5% CO2 and at 95% humidity, and cultured for 72 hrs before CTG analysis. 4. Fluorescence Signal Reading • (1) The CTG reagent was thawed and the cell plate was equilibrated to room temperature for 30 min. • (2) An equal volume of CTG solution was added to each well. • (3) The cells were lysed by shaking on an orbital shaker for 5 min. • (4) The cell plate was left at room temperature for 20 min to stabilize the fluorescence signal. • (5) The fluorescence values were read. 5. Data Processing
(§6) Data were analyzed using GraphPad Prism 7.0 software and fitted data were regressed using non-linear S-curves to obtain dose-response curves from which IC50 values (in nM) were calculated.

[2] = system: A431 (EGFR-WT); assay: Proliferation experiment, A431 cell line (CellTiter-Glo); settings: Homo sapiens, A-431; A431 cells, cultured for 72 hrs with compound, CTG analysis
Description: [The procedure below names another cell line; the source lists this cell line under the same test.] as §1, §2, §3, §4, §5, §6

[3] = molecular target: Ba/F3 EGFR-V769_D770insASV (Homo sapiens, UniProt P00533, DUP767-769, cells depend on it); assay: Proliferation experiment of Ba/F3 cell line, EGFR-V769_D770insASV (CellTiter-Glo); settings: cultured for 72 hrs with compound, CTG analysis, read-out: Ba/F3 EGFR-V769_D770insASV IC50
Sequence of Ba/F3 EGFR-V769_D770insASV (P00533 with tags, fused parts or gaps DUP767-769): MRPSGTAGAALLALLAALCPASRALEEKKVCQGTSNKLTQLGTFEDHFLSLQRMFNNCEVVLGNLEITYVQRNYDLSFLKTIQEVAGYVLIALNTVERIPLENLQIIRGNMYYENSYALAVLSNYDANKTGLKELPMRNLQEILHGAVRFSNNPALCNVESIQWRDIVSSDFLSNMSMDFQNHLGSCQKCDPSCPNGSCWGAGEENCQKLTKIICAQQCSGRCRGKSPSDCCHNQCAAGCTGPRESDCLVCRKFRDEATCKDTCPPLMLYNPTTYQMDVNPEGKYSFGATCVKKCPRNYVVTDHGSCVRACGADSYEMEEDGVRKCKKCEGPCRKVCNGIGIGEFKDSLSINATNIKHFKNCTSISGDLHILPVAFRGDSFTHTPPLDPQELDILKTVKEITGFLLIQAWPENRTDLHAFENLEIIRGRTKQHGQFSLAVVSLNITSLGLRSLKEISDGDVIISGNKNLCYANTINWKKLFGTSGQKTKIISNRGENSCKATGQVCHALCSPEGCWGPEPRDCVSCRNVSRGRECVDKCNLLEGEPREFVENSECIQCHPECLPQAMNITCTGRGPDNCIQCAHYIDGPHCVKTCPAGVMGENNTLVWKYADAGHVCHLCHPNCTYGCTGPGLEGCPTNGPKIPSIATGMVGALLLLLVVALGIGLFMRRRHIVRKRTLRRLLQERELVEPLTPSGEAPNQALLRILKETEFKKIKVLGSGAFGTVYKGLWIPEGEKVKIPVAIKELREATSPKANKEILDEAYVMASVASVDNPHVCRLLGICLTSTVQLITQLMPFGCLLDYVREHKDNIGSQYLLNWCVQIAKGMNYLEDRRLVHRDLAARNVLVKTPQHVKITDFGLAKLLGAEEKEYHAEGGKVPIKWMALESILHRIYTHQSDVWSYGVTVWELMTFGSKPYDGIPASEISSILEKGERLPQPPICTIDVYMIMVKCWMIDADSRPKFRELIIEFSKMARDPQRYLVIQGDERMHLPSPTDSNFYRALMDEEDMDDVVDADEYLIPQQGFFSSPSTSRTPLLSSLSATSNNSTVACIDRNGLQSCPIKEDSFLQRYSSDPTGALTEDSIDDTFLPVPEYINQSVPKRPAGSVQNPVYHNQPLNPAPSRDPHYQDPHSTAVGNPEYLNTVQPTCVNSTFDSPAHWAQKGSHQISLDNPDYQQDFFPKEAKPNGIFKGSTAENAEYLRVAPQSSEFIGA
Description: as §1, §2, §3, §4, §5, §6

For `C=CC(=O)Nc1cc2c(Nc3cccc(-c4ccc(F)cc4F)c3)ncnc2cc1C#CC(C)(C)N(C)C` [Example 9, N-(4-((2′,4′-difluoro-[1,1′-biphenyl]-3-yl)amino)-7-(3-(dimethylamino)-3-methylbut-1-yn-1-yl)quinazolin-6-yl)acrylamide], the GI50 [1] was 40.1 nM and the IC50 [2] was 625 nM.
With `C=CC(=O)Nc1cc2c(Nc3cc(-c4ncc(F)cc4F)ccc3F)ncnc2cc1OCCCN1CCOCC1` [Example 2, N-(4-((5-(3,5-difluoropyridin-2-yl)-2-fluorophenyl)amino)-7-(3-morpholinopropoxy)quinazolin-6-yl)acrylamide] the GI50 [1] was 121 nM.
For `C=C(F)C(=O)Nc1cc2c(Nc3ccnc(-c4ccccc4F)c3)ncnc2cc1N1CCC(F)CC1` [Example 109, 2-fluoro-N-(4-((2-(2-fluorophenyl)pyridin-4-yl)amino)-7-(4-fluoropiperidin-1-yl)quinazolin-6-yl)acrylamide], the IC50 [2] was 159 nM and the GI50 [3] was 25.8 nM.
`C=CC(=O)Nc1cc2c(Nc3cccc(-c4ccc(F)cn4)c3)ncnc2cc1OCCCN1CCOCC1` [Example 13, N-(4-((3-(5-fluoropyridin-2-yl)phenyl)amino)-7-(3-morpholinopropoxy)quinazolin-6-yl)acrylamide] gave a GI50 [1] of 105 nM and an IC50 [2] of 625 nM.
`C=CC(=O)Nc1cc2c(Nc3cccc(-c4ccc(F)cc4F)c3)ncnc2cc1C#CC(C)(C)N1CCN(C)CC1` [Example 12, N-(4-((2′,4′-difluoro-[1,1′-biphenyl]-3-yl)amino)-7-(3-methyl-3-(4-methylpiperazin-1-yl)but-1-yn-1-yl)quinazolin-6-yl)acrylamide] was tested, and the GI50 [1] was 32.3 nM and the IC50 [2] was 624 nM.
For `C=CC(=O)Nc1cc2c(Nc3cccc(-c4c(F)cc(F)cc4F)c3)ncnc2cc1OCCN1CCOCC1` [Example 24, N-(7-(2-morpholinoethoxy)-4-((2′,4′,6′-trifluoro-[1,1′-biphenyl]-3-yl)amino)quinazolin-6-yl)acrylamide], the GI50 [1] was 46.2 nM and the IC50 [2] was 378 nM.
Compound `C=C(F)C(=O)Nc1cc2c(Nc3ccnc(-c4ccccc4F)c3)ncnc2cc1N1CC(OC)C1` [Example 104, 2-fluoro-N-(4-((2-(2-fluorophenyl)pyridin-4-yl)amino)-7-(3-methoxyazetidin-1-yl)quinazolin-6-yl)acrylamide] has an IC50 [2] of 1190 nM and a GI50 [3] of 30 nM.
Work on `C=C(F)C(=O)Nc1cc2c(Nc3ccnc(-c4ccccc4F)c3)ncnc2cc1N1CCN(C)CC1` [Example 101, 2-fluoro-N-(4-((2-(2-fluorophenyl)pyridin-4-yl)amino)-7-(4-methylpiperazin-1-yl)quinazolin-6-yl)acrylamide] yielded an IC50 [2] of 240 nM and a GI50 [3] of 20.8 nM.
Compound `C=C(F)C(=O)Nc1cc2c(Nc3ccnc(-c4ccccc4F)c3)ncnc2cc1O[C@@H]1CCN(C2CN(C)C2)C1` [Example 119, (R)-2-fluoro-N-(4-((2-(2-fluorophenyl)pyridin-4-yl)amino)-7-((1-(1-methylazetidin-3-yl)pyrrolidin-3-yl)oxy)quinazolin-6-yl)acrylamide] has an IC50 [2] of 10.2 nM and a GI50 [3] of 3.4 nM.
`C=C(F)C(=O)Nc1cc2c(Nc3ccnc(-c4ccccc4F)c3)ncnc2cc1O[C@@H]1CCN(C2CCN(C)CC2)C1` [Example 120, (R)-2-fluoro-N-(4-((2-(2-fluorophenyl)pyridin-4-yl)amino)-7-((1-(1-methylpiperidin-4-yl)pyrrolidin-3-yl)oxy)quinazolin-6-yl)acrylamide] gave an IC50 [2] of 6 nM and a GI50 [3] of 7.1 nM.
`C=CC(=O)Nc1cc2c(Nc3cc(-c4ccc(F)cc4F)ccc3F)ncnc2cc1OCCN1CCOCC1` [Example 10, N-(7-(2-morpholinoethoxy)-4-((2′,4,4′-trifluoro-[1,1′-biphenyl]-3-yl)amino)quinazolin-6-yl)acrylamide] was tested, and the GI50 [1] was 28.7 nM and the IC50 [2] was 625 nM.
In the case of `C=CC(=O)Nc1cc2c(Nc3ccnc(-c4ccccc4F)c3)ncnc2cc1OCCOC` [Example 85, N-(4-((2-(2-fluorophenyl)pyridin-4-yl)amino)-7-(2-methoxyethoxy)quinazolin-6-yl)acrylamide], the IC50 [2] is reported as 1530 nM and the GI50 [3] is reported as 3 nM.
For `C=C(F)C(=O)Nc1cc2c(Nc3ccnc(-c4ccccc4F)c3)ncnc2cc1N1CC(F)C1` [Example 106, 2-fluoro-N-(7-(3-fluoroazetidin-1-yl)-4-((2-(2-fluorophenyl)pyridin-4-yl)amino)quinazolin-6-yl)acrylamide], the IC50 [2] was 1640 nM and the GI50 [3] was 40.9 nM.
`C=CC(=O)Nc1cc2c(Nc3cccc(-c4ncc(F)cc4F)c3)ncnc2cc1OCCN1CCOCC1` [Example 16, N-(4-((3-(3,5-difluoropyridin-2-yl)phenyl)amino)-7-(2-morpholinoethoxy)quinazolin-6-yl)acrylamide] showed a GI50 [1] of 34 nM and an IC50 [2] of 372 nM.
`C=C(F)C(=O)Nc1cc2c(Nc3ccnc(-c4ccccc4F)c3)ncnc2cc1N1CCC(F)(F)C1` [Example 108, N-(7-(3,3-difluoropyrrolidin-1-yl)-4-((2-(2-fluorophenyl)pyridin-4-yl)amino)quinazolin-6-yl)-2-fluoroacrylamide] gave a GI50 [3] of 29.9 nM.
With `C=CC(=O)Nc1cc2c(Nc3cc(-c4ccc(F)cn4)ccc3F)ncnc2cc1OCCCN1CCOCC1` [Example 23, N-(4-((2-fluoro-5-(5-fluoropyridin-2-yl)phenyl)amino)-7-(3-morpholinopropoxy)quinazolin-6-yl)acrylamide] the GI50 [1] was 261 nM.
`C=CC(=O)Nc1cc2c(Nc3ccnc(-c4ccccc4F)c3)ncnc2cc1OCC(F)(F)F` [Example 84, N-(4-((2-(2-fluorophenyl)pyridin-4-yl)amino)-7-(2,2,2-trifluoroethoxy)quinazolin-6-yl)acrylamide] gave an IC50 [2] of 1780 nM and a GI50 [3] of 3.2 nM.
For `C=C(F)C(=O)Nc1cc2c(Nc3ccnc(-c4ccccc4F)c3)ncnc2cc1N1CCC(F)(F)CC1` [Example 110, N-(7-(4,4-difluoropiperidin-1-yl)-4-((2-(2-fluorophenyl)pyridin-4-yl)amino)quinazolin-6-yl)-2-fluoroacrylamide], the IC50 [2] was 703 nM and the GI50 [3] was 52.6 nM.
`C=CC(=O)Nc1cc2c(Nc3cc(-c4ncc(F)cc4F)ccc3F)ncnc2cc1OCCN1CCOCC1` [Example 18, N-(4-((5-(3,5-difluoropyridin-2-yl)-2-fluorophenyl)amino)-7-(2-morpholinoethoxy)quinazolin-6-yl)acrylamide] showed a GI50 [1] of 129 nM.
Compound `C=C(F)C(=O)Nc1cc2c(Nc3ccnc(-c4ccccc4F)c3)ncnc2cc1OCCOC` [Example 89, 2-fluoro-N-(4-((2-(2-fluorophenyl)pyridin-4-yl)amino)-7-(2-methoxyethoxy)quinazolin-6-yl)acrylamide] has an IC50 [2] of 112 nM and a GI50 [3] of 12.8 nM.
Compound `C=CC(=O)Nc1cc2c(Nc3ccnc(-c4ccccc4F)c3)ncnc2cc1O[C@@H]1CCN(C2CN(C)C2)C1` [Example 115, (R)-N-(4-((2-(2-fluorophenyl)pyridin-4-yl)amino)-7-((1-(1-methylazetidin-3-yl)pyrrolidin-3-yl)oxy)quinazolin-6-yl)acrylamide] has an IC50 [2] of 23.2 nM and a GI50 [3] of 7.6 nM.
For `C=CC(=O)Nc1cc2c(Nc3ccnc(-c4ccccc4F)c3)ncnc2cc1O[C@@H]1CCN(C2CCOCC2)C1` [Example 117, (R)-N-(4-((2-(2-fluorophenyl)pyridin-4-yl)amino)-7-((1-(tetrahydro-2H-pyran-4-yl)pyrrolidin-3-yl)oxy)quinazolin-6-yl)acrylamide], the IC50 [2] was 988 nM and the GI50 [3] was 2.9 nM.
